From article PMC8272044, “5-Phenoxy Primaquine Analogs and the Tetraoxane Hybrid as Antimalarial Agents” (Molecules, 2021)
Read-outs that look alike come from different tables or passages of the source.

Columns and labels:
hematin polymerization = test: Inhibition of hematin polymerization (heme polymerization assay); format: biochemical;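 as to %Inh1: test concentrations in µM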;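 as to %Inh2: test concentrations in µM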;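 as to %Inh3: test concentrations in µM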
Experimental: The ability of the 5-phenoxy primaquine analogs to inhibit hematin polymerization was investigated using a protocol modified from the one described previously. […] After it was left standing for 15 min, Tween 20 (0.5 μM; Sigma) was added. […] The assay was performed in triplicate, and results were expressed as the percentage of inhibition relative to hemozoin formation in a negative control. The IC50 values were obtained from the sigmoidal dose–response curves using nonlinear regression curve fitting analyses with GraphPad Prism version 3.00 software. Each IC50 value is the result of at least three separate experiments.

[1] = Cytotoxicity by sulforhodamine B (SRB) colorimetric assay; format: cell-based, African green monkey; conditions: African green monkey, Vero cells, 72 h, SRB, mean ± SD of three repeats
Excerpt: (§1) A cytotoxicity test of selected analogs against African green monkey kidney fibroblast (Vero cells) was obtained from Bioassay Laboratory, BIOTEC, NSTDA, Thailand. They were maintained continuously in MEM/EBSS medium (Hyclone Laboratories Inc., South Logan, UT, USA), supplemented with 10% heated fetal bovine serum (GE Healthcare, PAA Laboratories GmbH, Pasching, Austria), 2.2 g/L Sodium bicarbonate (Emsure, Merck kGaA, Darmstadt, Germany), and 1% sodium pyruvate (Sigma). […] Then, the cells were fixed with 100 µL of 10% trichloroacetic acid (Sigma) at 4 °C for 45 min, washed, and dried at room temperature overnight. […] Finally, 200 µL of 10× Tris-base was added to each well to dissolve protein-bound dye. The OD was determined at a wavelength of 510 nm. The control media was used for overall background subtraction as 0% and untreated cells as 100% control without any cytotoxic effect. The IC50 value of each compound was determined from the dose–response curve.

[2] = test system: African green monkey kidney fibroblast (Vero cells); test: as above; format: cell-based; conditions: Vero CC50 / P. falciparum 3D7 IC50
Excerpt: as §1

P. falciparum 3D7 = test: In vitro blood antimalarial activity, malaria SYBR green I-based fluorescence (MSF) method; format: cell-based; conditions: Plasmodium falciparum; P. falciparum 3D7, blood stage, 48 h, mean ± SD of three biological repeats
Experimental: P. falciparum strain 3D7 (wild-type drug sensitive strain) was used in this study. This parasite was maintained continuously in vitro in human O+ erythrocytes (4% hematocrit) at 37 °C under 3% CO2 and 90% N2 in RPMI 1640 culture media (Life Technologies Limited, Paisley, UK) containing 2 mM L-Glutamine, 25 mM HEPES (Sigma), pH 7.4, 2g/L NaHCO3, 40 mg/L gentamicin, 0.37 mM hypoxanthine, and supplemented with 5 g/L Albumax I (Life Technologies, Grand Island, NY, USA). Every 3 to 4 days, the parasite culture was synchronized with 5% sorbitol and transferred into complete medium with uninfected erythrocytes. In vitro antimalarial activity was determined by using the malaria SYBR green I-based fluorescence (MSF) method. Briefly, 0.09 mL of cultured 1% ring-stage synchronized parasites and 2% hematocrit were transferred to individual wells of a standard 96-well microtiter plate and in vitro culture continued for 48 h, with 0.01 mL of compound at different concentration in each well. The compounds were first dissolved in DMSO and diluted with RPMI medium to 1% DMSO. The final concentration of DMSO in each well was 0.1%, which caused no effect on the parasite viability. Following 48 h, SYBR Green I solution (0.02 µL of 10,000X SYBR Green I/100 µL of buffer solution consisted of 20 mM Tris 20, pH 7.5, 5 mM EDTA, 0.008% w/v saponin and 0.08% v/v Triton X-100) was then added to each well, and fluorescence signals were measured by spectrofluorometer at ex485/em 535 nm. […] The result of each compound was normalized with control media for the overall background subtraction as 0% and untreated parasite with 0.1% DMSO as 100% control.

[3] = pH 5.0, mean ± SD of three independent repeats, read-out: IC50, inhibition of hemozoin-initiated hematin polymerization
[4] = primary data, repeat 1, read-out: IC50, heme polymerization inhibition, repeat 1
[5] = primary data, repeat 2, read-out: IC50, heme polymerization inhibition, repeat 2
[6] = primary data, repeat 3, read-out: IC50, heme polymerization inhibition, repeat 3
[7] = Vero cells (kidney fibroblasts)

Row | SMILES | %Inh1 (hematin polymerization; conc 2, repeat 1) [%] | %Inh2 (hematin polymerization; conc 2, repeat 2) [%] | %Inh3 (hematin polymerization; conc 2, repeat 3) [%] | %Inh1 (hematin polymerization; conc 10, repeat 1) [%] | %Inh2 (hematin polymerization; conc 10, repeat 2) [%] | %Inh3 (hematin polymerization; conc 10, repeat 3) [%] | %Inh1 (hematin polymerization; conc 50, repeat 1) [%] | %Inh2 (hematin polymerization; conc 50, repeat 2) [%] | %Inh3 (hematin polymerization; conc 50, repeat 3) [%] | %Inh1 (hematin polymerization; conc 100, repeat 1) [%] | %Inh2 (hematin polymerization; conc 100, repeat 2) [%] | %Inh3 (hematin polymerization; conc 100, repeat 3) [%] | %Inh1 (hematin polymerization; conc 200, repeat 1) [%] | %Inh2 (hematin polymerization; conc 200, repeat 2) [%] | %Inh3 (hematin polymerization; conc 200, repeat 3) [%] | %Inh1 (hematin polymerization; conc 400, repeat 1) [%] | %Inh2 (hematin polymerization; conc 400, repeat 2) [%] | %Inh3 (hematin polymerization; conc 400, repeat 3) [%] | IC50 (hematin polymerization; [3]) [µM] | IC50 (hematin polymerization; [4]) [µM] | other results
1 | CCN(CC)CCCC(C)Nc1ccnc2cc(Cl)ccc12 (stereo not drawn) [CQ, chloroquine, reference compound] | 14.98 | 12.22 | 11.21 | 19.21 | 27.67 | 27.09 | 49.80 | 36.78 | 59.78 | 84.80 | 81.20 | 70.36 | 96.36 | 72.73 | 85.74 | 105.70 | 94.31 | 97.41 | 61.2 ± 1.3 | 61.3 | IC50 (hematin polymerization; [5]): 59.6 µM; IC50 (hematin polymerization; [6]): 62.8 µM
2 | COc1cc(NC(C)CCCN)c2ncccc2c1Oc1ccc(C#N)cc1 (stereo not drawn) [7e, 4-((8-((5-Aminopentan-2-yl)amino)-6-methoxyquinolin-5-yl)oxy)benzonitrile] | 8.32 | 3.87 | 7.94 | 3.78 | 12.84 | 9.43 | 19.32 | 16.35 | 21.70 | 30.12 | 30.64 | 17.31 | 52.26 | 55.89 | 45.17 | 78.42 | 85.27 | 69.64 | 286 ± 11.9 | 291 | IC50 (hematin polymerization; [5]): 269 µM; IC50 (hematin polymerization; [6]): 297 µM; CC50 at 72 h [1, 7]: > 100 µM; SI, selectivity index = CC50 on Vero cells / IC50 in the blood stage [2]: >21.65; IC50 (P. falciparum 3D7): 4.62 ± 0.56 µM
3 | COc1cc(NC(C)CCCN)c2ncccc2c1Oc1ccc(Cl)cc1 (stereo not drawn) [7d, N^4-(6-Methoxy-5-(4-chlorophenoxy)quinolin-8-yl)pentane-1,4-diamine] | 7.78 | 6.26 | 2.78 | 12.08 | 17.37 | 9.55 | 28.15 | 20.53 | 25.95 | 39.02 | 49.70 | 40.32 | 81.92 | 79.27 | 75.78 | 96.57 | 99.33 | 91.32 | 132 ± 5.3 | 135 | IC50 (hematin polymerization; [5]): 125 µM; IC50 (hematin polymerization; [6]): 137 µM; CC50 at 72 h [1, 7]: 46.4 ± 5.68 µM; SI, selectivity index = CC50 on Vero cells / IC50 in the blood stage [2]: 5.66; IC50 (P. falciparum 3D7): 8.2 ± 0.83 µM
4 | COc1cc(NC(C)CCCN)c2ncccc2c1Oc1ccc(F)cc1 (stereo not drawn) [7f, N^4-(5-(4-Fluorophenoxy)-6-methoxyquinolin-8-yl) pentane-1,4-diamine] | 6.02 | 1.81 | 11.52 | 14.36 | 7.54 | 9.67 | 18.94 | 24.82 | 18.18 | 36.82 | 32.41 | 35.89 | 67.61 | 72.28 | 73.29 | 89.47 | 91.81 | 104.26 | 167 ± 8.6 | 155 | IC50 (hematin polymerization; [5]): 171 µM; IC50 (hematin polymerization; [6]): 175 µM; CC50 at 72 h [1, 7]: 47.5 ± 3.23 µM; SI, selectivity index = CC50 on Vero cells / IC50 in the blood stage [2]: 9.55; IC50 (P. falciparum 3D7): 4.97 ± 0.4 µM
5 | COc1cc(NC(C)CCCNCCCCOc2ccc(C3CCC4(CC3)OOC3(OO4)C4CC5CC(C4)CC3C5)cc2)c2ncccc2c1Oc1ccccc1 (stereo not drawn) [compound 12, N^1-(4-(4-((1r,3r,5r,7r)-Dispiro[adamantane-2,3′-[1,2,4,5]tetraoxane-6′,1″-cyclohexan]-4″-yl)phenoxy)butyl)-N^4-(6-methoxy-5-phenoxyquinolin-8-yl)pentane-1,4-diamine] | 12.59 | 16.51 | 8.88 | 19.10 | 21.09 | 14.14 | 48.21 | 49.80 | 51.14 | 82.20 | 73.34 | 64.09 | 90.25 | 95.79 | 87.78 | 106.35 | 95.69 | 97.20 | 66.9 ± 3.5 | 64.5 | IC50 (hematin polymerization; [5]): 64.3 µM; IC50 (hematin polymerization; [6]): 71.8 µM; CC50 at 72 h [1, 7]: 17.3 ± 0.36 µM; SI, selectivity index = CC50 on Vero cells / IC50 in the blood stage [2]: 45.61; IC50 (P. falciparum 3D7): 0.38 ± 0.11 µM
6 | Cc1c2ccncc2c(C)c2c1[nH]c1ccccc12 [EPT, ellipticine, reference compound] |  |  |  |  |  |  |  |  |  |  |  |  |  |  |  |  |  |  |  |  | CC50 at 72 h [1]: 5.97 ± 0.14 µM
